Reference: ChEMBL document CHEMBL5143523, “Construction and activity evaluation of novel benzodioxane derivatives as dual-target antifungal inhibitors” (Eur J Med Chem, 2022)
≈ marks a conversion by molar mass, not a printed value.

Assays:
[1] = test system: Candida albicans; assay: Antifungal activity against Candida albicans ATCC 10231 assessed as fungal growth inhibition measured after 72 hrs by CLSI protocol based liquid medium dilution method; format: functional
[2] = test system: Pichia kudriavzevii; assay: Antifungal activity against Candida krusei ATCC 6258 assessed as fungal growth inhibition measured after 72 hrs by CLSI protocol based liquid medium dilution method; format: functional
[3] = test system: Nakaseomyces glabratus; assay: Antifungal activity against Candida glabrata ATCC 0001 assessed as fungal growth inhibition measured after 72 hrs by CLSI protocol based liquid medium dilution method; format: functional
[4] = test system: Candida tropicalis; assay: Antifungal activity against Candida tropicalis ATCC 1369 assessed as fungal growth inhibition measured after 72 hrs by CLSI protocol based liquid medium dilution method; format: functional
[5] = test system: Aspergillus fumigatus; assay: Antifungal activity against Aspergillus fumigatus KM8001 assessed as fungal growth inhibition measured after 72 hrs by CLSI protocol based liquid medium dilution method; format: functional
[6] = test system: Candida albicans; assay: Antifungal activity against fluconazole resistant Candida albicans strain 17# assessed as fungal growth inhibition measured after 72 hrs by CLSI protocol based liquid medium dilution method; format: functional
[7] = test system: Candida albicans; assay: Antifungal activity against fluconazole resistant Candida albicans strain CaR assessed as fungal growth inhibition measured after 72 hrs by CLSI protocol based liquid medium dilution method; format: functional
[8] = test system: Candida albicans; assay: Antifungal activity against fluconazole resistant Candida albicans strain 103 assessed as fungal growth inhibition measured after 72 hrs by CLSI protocol based liquid medium dilution method; format: functional
[9] = test system: Candida albicans; assay: Antifungal activity against fluconazole resistant Candida albicans strain 901 assessed as fungal growth inhibition measured after 72 hrs by CLSI protocol based liquid medium dilution method; format: functional
[10] = test system: Candida albicans; assay: Antifungal activity against fluconazole resistant Candida albicans strain 904 assessed as fungal growth inhibition measured after 72 hrs by CLSI protocol based liquid medium dilution method; format: functional
[11] = test system: Candida albicans; assay: Induction of apoptosis in Candida albicans ATCC SC5314 cells assessed as live cells at 8 ug/ml incubated for 72 hrs by Annexin V-FITC/PI staining based flow cytometry method (reference value: 95.56%); format: functional; conditions: dose 8 µg/ml
[12] = test system: Candida albicans; assay: Induction of apoptosis in Candida albicans ATCC SC5314 cells assessed as early apoptotic cells at 8 ug/ml incubated for 72 hrs by Annexin V-FITC/PI staining based flow cytometry method (reference value: 0.56%); format: functional; conditions: dose 8 µg/ml
[13] = test system: Candida albicans; assay: Induction of apoptosis in Candida albicans ATCC SC5314 cells assessed as necrotic cells at 8 ug/ml incubated for 72 hrs by Annexin V-FITC/PI staining based flow cytometry method (reference value: 3.76%); format: functional; conditions: dose 8 µg/ml
[14] = test system: Candida albicans; assay: Induction of apoptosis in Candida albicans ATCC SC5314 cells assessed as late apoptotic cells at 8 ug/ml incubated for 72 hrs by Annexin V-FITC/PI staining based flow cytometry method (reference value: 0.12%); format: functional; conditions: dose 8 µg/ml
[15] = test system: Candida albicans; assay: Antifungal activity against Candida albicans ATCC SC5314 assessed as decrease in ergosterol content at 4 ug/ml incubated for 48 hrs by LC-MS analysis (reference value: 90.6%); format: functional; parameters: scale not given: the % may be the effect or the level left; conditions: dose 4 µg/ml
[16] = test system: Candida albicans; assay: Antifungal activity against Candida albicans ATCC SC5314 assessed as change in squalene level at 4 ug/ml incubated for 48 hrs by LC-MS analysis; format: functional; conditions: dose 4 µg/ml
[17] = test system: Candida albicans; assay: Antifungal activity against Candida albicans ATCC SC5314 assessed as change in lanosterol level at 4 ug/ml incubated for 48 hrs by LC-MS analysis (reference value: 3.7%); format: functional; conditions: dose 4 µg/ml
[18] = test system: Candida albicans; assay: Antifungal activity against Candida albicans ATCC SC5314 assessed as change in eburicol level at 4 ug/ml incubated for 48 hrs by LC-MS analysis (reference value: 1.4%); format: functional; conditions: dose 4 µg/ml
[19] = test system: Candida albicans; assay: Antifungal activity against Candida albicans ATCC SC5314 assessed as change in unknown sterol level at 4 ug/ml incubated for 48 hrs by LC-MS analysis (reference value: 4.3%); format: functional; conditions: dose 4 µg/ml
[20] = target: T1, Squalene epoxidase ERG1 (Candida albicans, UniProt Q92206); assay: Inhibition of SE in Candida albicans ATCC SC5314 incubated for 30 mins using squalene as substrate in presence of NADPH by spectrophotometer analysis
T1 sequence (Q92206 whole entry): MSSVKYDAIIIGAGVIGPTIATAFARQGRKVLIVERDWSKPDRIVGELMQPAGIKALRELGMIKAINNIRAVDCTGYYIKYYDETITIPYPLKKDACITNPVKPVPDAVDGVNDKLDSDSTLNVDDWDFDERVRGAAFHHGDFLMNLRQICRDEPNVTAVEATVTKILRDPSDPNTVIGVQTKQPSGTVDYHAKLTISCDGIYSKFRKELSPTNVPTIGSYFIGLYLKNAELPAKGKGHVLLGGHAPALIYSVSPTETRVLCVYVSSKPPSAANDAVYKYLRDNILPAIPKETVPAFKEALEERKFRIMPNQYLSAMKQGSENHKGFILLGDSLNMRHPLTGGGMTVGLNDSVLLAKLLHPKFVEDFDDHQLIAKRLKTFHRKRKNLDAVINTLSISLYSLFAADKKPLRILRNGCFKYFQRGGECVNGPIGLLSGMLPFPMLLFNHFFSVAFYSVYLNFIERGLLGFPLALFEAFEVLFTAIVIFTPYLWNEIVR

[21] = test system: Candida albicans; assay: Antifungal activity against fluconazole resistant Candida albicans strain CaR assessed as fungal growth inhibition measured after 72 hrs in presence of miconazole by CLSI protocol based liquid medium dilution method
[22] = test system: Candida albicans; assay: Antifungal activity against fluconazole resistant Candida albicans strain 17# assessed as fungal growth inhibition measured after 72 hrs in presence of miconazole by CLSI protocol based liquid medium dilution method
[23] = test system: Candida albicans; assay: microbe, parasite or virus in culture; conditions: Candida albicans, 103, 72 h
Description: Antifungal activity against fluconazole resistant Candida albicans strain 103 assessed as fungal growth inhibition measured after 72 hrs in presence of miconazole by CLSI protocol based liquid medium dilution method

[24] = test system: Candida albicans; assay: microbe, parasite or virus in culture; conditions: Candida albicans, 901, 72 h
Description: Antifungal activity against fluconazole resistant Candida albicans strain 901 assessed as fungal growth inhibition measured after 72 hrs in presence of miconazole by CLSI protocol based liquid medium dilution method

[25] = test system: Candida albicans; assay: microbe, parasite or virus in culture; conditions: Candida albicans, 904, 72 h
Description: Antifungal activity against fluconazole resistant Candida albicans strain 904 assessed as fungal growth inhibition measured after 72 hrs in presence of miconazole by CLSI protocol based liquid medium dilution method

Structure (SMILES): CN(C/C=C/c1ccccc1)Cc1cccc2ccccc12 [NAFTIFINE]
- MIC50 [1]: 0.5 µg/mL (≈ 1.74 µM)
- MIC50 [2]: 0.5 µg/mL (≈ 1.74 µM)
- MIC50 [3]: 1 µg/mL (≈ 3.48 µM)
- MIC50 [4]: 0.5 µg/mL (≈ 1.74 µM)
- MIC50 [5]: 4 µg/mL (≈ 13.9 µM)
- MIC50 [6]: 2 µg/mL (≈ 6.96 µM)
- MIC50 [7]: 4 µg/mL (≈ 13.9 µM)
- MIC50 [8]: 4 µg/mL (≈ 13.9 µM)
- MIC50 [9]: 2 µg/mL (≈ 6.96 µM)
- MIC50 [10]: 4 µg/mL (≈ 13.9 µM)
- Activity [11]: 61.6%
- Activity [12]: 0.56%
- Activity [13]: 35.85%
- Activity [14]: 1.99%
- Activity [15]: 35.1%
- Activity [16]: 52.8%
- Activity [17]: 2.6%
- Activity [18]: 3.7%
- Activity [19]: 5.8%
- IC50 [20]: 317 nM
- MIC50 [21]: 1 µg/mL
- MIC50 [22]: 1 µg/mL
- MIC50 [23]: 2 µg/mL (≈ 6.96 µM)
- MIC50 [24]: 2 µg/mL (≈ 6.96 µM)
- MIC50 [25]: 1 µg/mL (≈ 3.48 µM)
